From a melting point compilation (Tetko et al.; mined from patent text by program, amines drawn as free bases though some values may be those of a salt)

Row | melting point [°C] | SMILES
1 | 168 | CCCCS(=O)(=O)Nc1ccc(Oc2ccc3cccnc3c2)cc1
2 | 148 to 150 | Oc1ccc(OCCN2CCCCC2)cc1
3 | 222 to 224 | S=c1ncn(-c2ccc(Cl)cc2)[nH]1
4 | 130 | Fc1ccc(OCCCN2CCC(CNc3nc4ccccc4s3)CC2)c(OCc2ccccc2)c1
5 | 29 to 30 | Cc1cc(CCCCCOc2c(Cl)cc(-c3ccco3)cc2Cl)on1
6 | 46.8 to 49.2 | COCOc1ccc2cc(Br)ccc2c1
7 | 178 to 182 | Cc1ccc(-c2cnc(N)c(C(=O)Nc3cccnc3)n2)cc1C
8 | 234 | NS(=O)(=O)c1cc(C(=O)O)cc(NCc2ccccc2)c1S(=O)c1ccccc1 (configuration not stated)
9 | 215 to 216 | O=C(O)c1cc(-n2c(-c3ccc(Br)cc3)cc3c2CCC3)ccc1O
10 | 151 to 153 | Cc1ccc(Cn2ncn(-c3nc(C)c(C(=O)NCc4csc(C(C)C)n4)s3)c2=O)cc1
11 | 41 to 43 | O=C(CCc1ccccc1)c1ccc(OCCO)cc1
12 | 250 to 252 | CCOC(=O)CC(=O)c1c(C(=O)OC)n(C)c2cc(Cl)ccc12
13 | 133 | CC(CO)(CO)NS(=O)(=O)c1cc([N+](=O)[O-])c(Cl)s1
14 | 214 to 216 | c1ccc(-c2cc3nc(N4CCOCC4)c4ccccc4c3nn2)cc1
15 | 87 | C[C@@H](O)[C@H](NC(=O)OC(C)(C)C)C(=O)NOCc1ccccc1
16 | 235 to 236 | CC1(C)OC(=O)Nc2c(Br)cc(-c3ccc(F)c(C#N)c3)cc21
17 | 119 to 120 | CC(C)c1cccc(C(C)C)c1NC(=O)CN[C@H](C)c1ccccc1
18 | 94 to 95 | CC(=O)Oc1cc(C(=O)Cc2ccccc2)cc([N+](=O)[O-])c1OC(C)=O
19 | 214 | COc1ccc(C2CC(C(C)(C)C)=NN2c2ccc(C(=O)O)cc2)c(OC)c1 (configuration not stated)
20 | > 260 | Cc1cc(C)c2nc(NCCCN3CCCCC3)n(Cc3nc(C)ccc3O)c2c1
21 | 103 to 105 | CC(=O)c1c(N(C)C)c(-c2ccccc2)n(Cc2ccccc2Cl)c1C
22 | 141 to 143 | Cc1cccc(C2(c3ccc(F)c(-c4ccc(NC(=O)NN5CCOCC5)cc4)c3)CNC(C(C)C)=N2)n1 (configuration not stated)
23 | 121 to 122 | COCCCNS(=O)(=O)NC(=O)/C(C)=C/c1ccc(OCCOC)cc1Oc1ncc(C(F)(F)F)cc1Cl
24 | 85 to 86 | O=C(N[C@H]1CCC[C@@H]1O)C(O)=CC(=O)c1cc(Cc2ccc(F)cc2F)cn(Cc2ccc(F)cc2)c1=O

Row | melting point [°C] | SMILES
25 | 264 to 265 | CC(=O)Oc1ccc(C(=O)Oc2ccc(C(=O)O)cc2)cc1C12CC3CC(CC(C3)C1)C2
26 | 191 to 195 | Cc1ccc(F)cc1C(=O)Nc1ccc(C(=O)N2Cc3cccn3Cc3ccccc32)c(Cl)c1
27 | 130 to 132 | CC(=C1SC(=O)NC1=O)c1ccc(NCCOc2c(-c3ccc(F)cc3)n(C)c3ccccc3c2=O)cc1
28 | 131 to 133 | CC(=O)OCc1ccccc1S(N)(=O)=O
29 | 179 to 180 | CCCc1cc(Cl)c2oc(Cc3ccc(OCC(=O)O)cc3)c(C)c2c1O
30 | 115 | O=C(CCCCCN1CCN(c2cccc3c2CCCC3)CC1)N1Cc2ccccc2C1
31 | 195 to 196 | COC(=O)c1ccc(-c2nc(-c3ccc(C(C)(C)C)cc3)no2)c(N)c1
32 | 118 to 120 | CCOC(=O)c1ccc(-c2cccc(O)c2)c(C(C)(C)C)c1
33 | 148 to 151 | OC1=Cc2ccccc2C=Cc2cc(Br)ccc21
34 | 106 to 107 | COc1ccc(C2CC(=O)N(Cc3ccc4ccc(Cl)cc4n3)C2)cc1OC1CCCC1 (configuration not stated)
35 | 227 to 230 | CN(C)C1CCc2[nH]c3c(CO)cccc3c2C1 (configuration not stated)
36 | 167 to 168 | CCC(C)C(=O)Nc1c(C(O)(C(F)(F)F)C(F)(F)F)ccc2ccccc12 (configuration not stated)
37 | 240 to 242 | CCCn1nc(C)c(C(=O)O)c1Cc1ccc(-c2ccccc2-c2nnn[nH]2)cc1
38 | > 300 | NC(=O)C1CCN(C(=O)c2ccc(NCc3cnc4nc(N)nc(N)c4n3)cc2)CC1
39 | 65 to 67 | CCCC(C)(C)c1nsc(N=CN(C)C)c1C#N
40 | 162 | O=C(/C=C/c1cccc(S(=O)(=O)N2CCN(c3cccc([N+](=O)[O-])c3)CC2)c1)NO
41 | 191 to 193 | S=c1[nH]c2cccc(OCCNCc3cccc4ccccc34)c2[nH]1
42 | 165 to 167 | O=C1CC(=O)[C@H](CC2CCCCC2)N1
43 | 98 to 100 | OC(COCc1ccc(Br)cc1)Cn1ccnc1 (configuration not stated)
44 | 173 to 175 | CN1C(=O)C(c2ccc(OC(F)F)cc2)(c2cccnc2)N=C1N (configuration not stated)
45 | 51.5 to 53 | Cc1ccc(C)c(OCc2ccccc2CC#N)c1
46 | 165 to 170 | CCC1c2c(C#N)ncn2-c2cnc(Nc3ccc(C(=O)NC4CCN(C5CCN(CC(C)C)CC5)CC4)cc3OC)nc2N1C(C)C (configuration not stated)
47 | 125 to 127 | O=C(O)COc1ccc(SCc2ccc(OCc3ccc(F)cc3C(F)(F)F)cc2)c2c1CCC2
48 | 79 to 81 | CSc1nncc(-c2cccc(Cl)c2)n1

Row | melting point [°C] | SMILES
49 | 202 to 203 | CCOC(=O)c1sc(NC(=O)c2ccc(C)cc2)nc1C(F)(F)C(F)(F)F
50 | 64 to 67 | COC(=O)c1ccccc1S(=O)COc1ccc(Cl)cc1Cl (configuration not stated)
51 | 175 to 177 | COC(=O)[C@@]1(C)Cc2c([nH]c3ccc(OC)cc23)[C@@H](c2cccc(O)c2)N1 (racemic)
52 | 207 | Cc1cccc(NC(=O)NCC(=O)N(CC(=O)OC(C)(C)C)c2ccccc2C(=O)N2CCCC(C)(C)C2)c1
53 | > 300 | COc1cc2nc(N3CCc4c(cccc4-c4cnccc4N)C3)[nH]c(=O)c2cc1OC
54 | > 240 | Cc1c(S(=O)(=O)c2ccc(=O)[nH]n2)oc2cc(Cl)ccc12
55 | 155 to 157 | COc1ccc(S(=O)(=O)Oc2ccn3nc(-c4ccccc4)c(-c4ccc(=O)n(C(C)C)n4)c3c2)cc1
56 | 146 to 148 | CC1Cc2c(occ(C=O)c2=O)-c2ccccc21 (configuration not stated)
57 | 158 | CCc1cccc(C)c1CNc1cc(Cn2ccnc2)cn2nc(C)nc12
58 | 182 to 184 | Cn1nc(-c2cccc(C(F)(F)F)c2)c(Br)c1C(=O)O
59 | 63.5 to 64 | CSC1=CNSC1(C#N)SC (configuration not stated)
60 | 187 to 189 | O=C(O)CC(NC(=O)OCC1c2ccccc2-c2ccccc21)C(F)(F)F (configuration not stated)
61 | 89 to 90 | CCCc1cccc(=O)[nH]1
62 | 123 to 124 | Cc1ccc(S(=O)(=O)N2CC=CC2)cc1
63 | 74 to 75 | COc1ccc(C2=NN(CCCCCCBr)C(=O)[C@H]3CCCC[C@@H]23)cc1OC (relative stereo)
64 | 79 to 81 | CC(C)(C)OC(=O)N1CCC(NCc2ccccc2N)CC1
65 | 162 to 165 | CCOC(=O)/C=C/c1cc(-n2ncnn2)cc(C)c1N
66 | 205 | Cc1c(C(=O)Nc2ccc(N3CCCC3)c(C#N)c2)cnn1-c1ccc(Cl)cc1
67 | 116 | COc1ccc(-c2ccc(NCc3ccccc3)nn2)cc1OC1CCCC1
68 | 187 to 193 | CN(N)C(=O)N=C1CCC(CC2CCC(=NC(=O)N(C)N)CC2)CC1 (configuration not stated)
69 | 171 | C=CCN1CCN(C2=NC3(C=CC(=O)C=C3)C(c3ccccc3)=C2)CC1
70 | 140 | Cc1cc(-n2ccnc2)c2cccc(OCc3c(Cl)ccc(S(=O)(=O)N4CCC[C@H]4C(=O)NCCO)c3Cl)c2n1
71 | 166 to 168 | COc1nc(NN)c2c(OC)c(OC)cc(Cl)c2n1
72 | 138 to 139 | O=C(NCCCCCCCNC(=O)c1ccc(OC(F)F)cc1)c1ccc(OC(F)F)cc1

Row | melting point [°C] | SMILES
73 | 243 to 245 | Fc1ccc(Oc2ccc(-c3nc4ccccc4[nH]3)cc2)cc1
74 | 191 to 192 | Cc1ccc(-c2nc(C)c(-c3ccnc(Nc4ccc(N5CCOCC5)cc4)n3)s2)c(C)c1
75 | 185 to 186 | c1ccc(Cn2cccc2-c2nc(Nc3ccc(-c4ccccc4)cc3)nc(Nc3ccc(-c4ccccc4)cc3)n2)cc1
76 | 128 to 131 | COc1cc(C(O)c2ccccc2[N+](=O)[O-])c(Br)cn1 (configuration not stated)
77 | 236 to 237 | CNC(=O)Nc1ccc(OC)c(-c2ccc(C[C@H](NC(=O)c3c(Cl)cccc3Cl)C(=O)O)cc2)c1OC
78 | 110 to 112 | CCOC(=O)CSC1=CC(=NS(=O)(=O)c2cccs2)c2ccccc2C1=O
79 | 191 | O=C(CN1C(=O)c2ccccc2C1=O)Nc1ccccc1Nc1ccccc1
80 | 135 to 140 | CC(C)[C@H](NC(=O)[C@@H]1CCCN1C(=O)[C@@H](NC(=O)Cn1ccc(=O)n(CC(=O)O)c1=O)C(C)C)C(=O)c1nc2ccccc2o1
81 | 85 to 89 | CN1CCN(c2ccc(S(=O)(=O)c3ccc(F)cc3)c(N)c2)CC1
82 | 149 to 150 | COCc1nnc2ccc(-c3cccc(C(F)(F)F)c3)nn12
83 | 227 to 228 | O=C(O)C1CCc2c(-c3ccc(Cl)cc3)noc2C1 (configuration not stated)
84 | 204 to 206 | CNC(=O)COc1nc(N)nc(-c2ccccc2)c1-c1ccc(=O)n(C(C)C)n1
85 | 167 to 168 | Cc1c(NC(=O)c2ccc(OCC3CC3)cc2)ccc2cc(CNCC3CCOCC3)[nH]c12
86 | 216 to 217 | Cc1ccc2nc(N3CCN(c4ncccc4C(F)(F)F)CC3)[nH]c2c1
87 | 122 | N#Cc1ccc(CC23CCCN2C(=O)N(c2cc(Cl)cc(Cl)c2N)C3=O)cc1 (configuration not stated)
88 | 238 to 244 | CC(=O)NCCNC(=O)Nc1ccc(-c2c[nH]c(=O)cn2)cc1
89 | 245 to 246 | Cc1ccc(Sc2c(O)c3ccc(Cl)cc3[nH]c2=O)cc1
90 | 114 to 116 | Cc1cc(C)c2c(c1O)C(NS(C)(=O)=O)CC2 (configuration not stated)
91 | 88 | O=Cc1nn(-c2cccc(C(F)(F)F)c2)c2c1CCCC2
92 | 98 | CCN(CC)C(=O)Oc1nc(-c2ccc(C)cc2)cc2ccccc12
93 | 99 | OC(CCl)CSc1ncc(Cl)cn1 (configuration not stated)
94 | 169 to 170 | CCc1c(N)cccc1NC(=O)c1ccc(Br)cc1

Row | SMILES | melting point [°C]
95 | O=C1C=C(NC(=O)C(=O)c2cn(Cc3ccccc3[N+](=O)[O-])c3ccccc23)CO1 | 257 to 260
96 | CCS(=O)(=O)CCc1ccc2[nH]cc(CC3CCCN3C)c2c1 (configuration not stated) | 59 to 62
97 | CCOc1ccc(OC(CCC(=O)O)C2(O)CN3CCC2CC3)cc1 (configuration not stated) | 75 to 77
